In ChEMBL document CHEMBL1201862, “PubChem BioAssay data set” (2004):
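Tested at 5 concentrations; 48 h exposure; 96-well plates; endpoints linearly interpolated, else capped at highest concentration. At the GI50, growth is halved.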 The source made the active and inactive calls. Cut-off read from the data, not from the text of the source: active = GI50 up to about 1.1 µM and inactive = higher.

Legend:
Assay in all cases: inhibition of tumour cell growth, NCI panel, 48 h
Hs-578T = system: Hs-578T
HOP-62 = system: HOP-62
A549 = system: A549
IGROV-1 = system: IGROV-1
HOP-92 = system: HOP-92
CCRF-CEM = system: CCRF-CEM
SF-295 = system: SF-295
TK-10 = system: TK-10
NCI/ADR-RES = system: NCI/ADR-RES
SW-620 = system: SW-620
M14 = system: M14
DU-145 = system: DU-145
NCI-H226 = system: NCI-H226
U-251 = system: U-251
SF-268 = system: SF-268
UO-31 = system: UO-31
MDA-MB-231 = system: MDA-MB-231
MDA-N = system: MDA-N
SK-MEL-2 = system: SK-MEL-2

Structure (SMILES)	GI50 (Hs-578T)	GI50 (HOP-62)	GI50 (A549)	GI50 (IGROV-1)	GI50 (HOP-92)	GI50 (CCRF-CEM)	GI50 (SF-295)	GI50 (TK-10)	GI50 (NCI/ADR-RES)	GI50 (SW-620)	GI50 (M14)	GI50 (DU-145)	GI50 (NCI-H226)	GI50 (U-251)	GI50 (SF-268)	GI50 (UO-31)	GI50 (MDA-MB-231)	GI50 (MDA-N)	GI50 (SK-MEL-2)
CC(C)CCC(=O)c1ccoc1 [PERILLAKETONE]	> 100 µM (inactive)	> 100 µM (inactive)	> 100 µM (inactive)	> 100 µM (inactive)	> 100 µM (inactive)	> 100 µM (inactive)	> 100 µM (inactive)	> 100 µM (inactive)	> 100 µM (inactive)	> 100 µM (inactive)	> 100 µM (inactive)	> 100 µM (inactive)	> 100 µM (inactive)	> 100 µM (inactive)	> 100 µM (inactive)	> 100 µM (inactive)	> 100 µM (inactive)	> 100 µM (inactive)	> 100 µM (inactive)
C#CCSc1cnc2ccccc2c1Sc1c[nH]c2ccccc2c1=O	48.2 µM (inactive)	26.5 µM (inactive)	14.4 µM (inactive)	3.29 µM (inactive)	16.1 µM (inactive)	> 100 µM (inactive)	24.1 µM (inactive)	40.2 µM (inactive)	33 µM (inactive)	24.8 µM (inactive)	17 µM (inactive)	51.3 µM (inactive)	21 µM (inactive)	15 µM (inactive)	29.9 µM (inactive)	2.14 µM (inactive)	31.9 µM (inactive)	18.1 µM (inactive)	19.1 µM (inactive)
COc1cccc(-c2cc(=O)c3ccccc3o2)c1N	71.9 µM (inactive)	18.3 µM (inactive)	> 91.8 µM (inactive)	87.5 µM (inactive)	> 83.4 µM (inactive)	> 100 µM (inactive)	> 66.1 µM (inactive)	> 100 µM (inactive)	33 µM (inactive)	15.5 µM (inactive)	5.56 µM (inactive)	> 100 µM (inactive)	63 µM (inactive)	> 100 µM (inactive)	61.2 µM (inactive)	36.3 µM (inactive)	26.9 µM (inactive)	24.4 µM (inactive)	27.4 µM (inactive)
Cc1ccc(C(=O)NCc2ccccc2)cc1/N=N/N(C)C	> 100 µM (inactive)	> 100 µM (inactive)	> 77.8 µM (inactive)	> 100 µM (inactive)	65 µM (inactive)	87.7 µM (inactive)	> 71.9 µM (inactive)	> 100 µM (inactive)	86.3 µM (inactive)	> 100 µM (inactive)	> 100 µM (inactive)	> 100 µM (inactive)	> 100 µM (inactive)	> 100 µM (inactive)	> 62.5 µM (inactive)	> 31.5 µM (inactive)	> 100 µM (inactive)	> 100 µM (inactive)	> 100 µM (inactive)
COC(=O)CNC(=O)CCC(C)[C@H]1CCC2C3C(C[C@H](OC(C)=O)[C@@]21C)[C@@]1(C)CCC2(C[C@H]1C[C@H]3OC(C)=O)OOC1(CCCCC1)OO2 (stereo not given in full)	2.72 µM (inactive)	0.579 µM (active)	1.72 µM (inactive)	1.4 µM (inactive)	1.08 µM (active)	2.1 µM (inactive)	6.08 µM (inactive)	11.2 µM (inactive)	2.17 µM (inactive)	2.24 µM (inactive)	3.91 µM (inactive)	2.34 µM (inactive)	2.1 µM (inactive)	1.76 µM (inactive)	1.75 µM (inactive)	1.84 µM (inactive)	1.64 µM (inactive)	1.74 µM (inactive)	2.24 µM (inactive)
O=c1ccn2n1CCCCC2	> 100 µM (inactive)	> 100 µM (inactive)	> 100 µM (inactive)	> 100 µM (inactive)	> 100 µM (inactive)	> 100 µM (inactive)	> 100 µM (inactive)	> 100 µM (inactive)	> 100 µM (inactive)	> 100 µM (inactive)	> 100 µM (inactive)	> 100 µM (inactive)	> 100 µM (inactive)	> 100 µM (inactive)	> 100 µM (inactive)	> 100 µM (inactive)	> 100 µM (inactive)	> 100 µM (inactive)	> 100 µM (inactive)
Cc1ccc(NC(=O)CC(=O)N2N=C(c3ccccc3)C(/N=N/c3ccc(S(=O)(=O)CCOS(=O)(=O)O)cc3)C2=O)cc1 (stereo not given)	29.2 µM (inactive)	77.6 µM (inactive)	> 100 µM (inactive)	41.6 µM (inactive)	> 100 µM (inactive)	> 100 µM (inactive)	> 100 µM (inactive)	> 100 µM (inactive)	> 100 µM (inactive)	> 100 µM (inactive)	> 100 µM (inactive)	> 100 µM (inactive)	> 100 µM (inactive)	41.8 µM (inactive)	> 100 µM (inactive)	> 100 µM (inactive)	> 100 µM (inactive)	> 100 µM (inactive)	57.1 µM (inactive)
Fc1ccc(C(OCCN2CCC3CCC(C2)N3Cc2cc3ccccc3[nH]2)c2ccc(F)cc2)cc1 (stereo not given)	1.88 µM (inactive)	2.05 µM (inactive)	2.01 µM (inactive)	1.38 µM (inactive)	1.84 µM (inactive)	1.71 µM (inactive)	1.96 µM (inactive)	2.43 µM (inactive)	1.57 µM (inactive)	1.56 µM (inactive)	1.6 µM (inactive)	1.85 µM (inactive)	1.83 µM (inactive)	1.87 µM (inactive)	2.04 µM (inactive)	2 µM (inactive)	1.7 µM (inactive)	1.73 µM (inactive)	1.71 µM (inactive)
CC1[C@@H](OCc2ccccc2)COC(=O)N1Cc1ccccc1 (stereo not given in full)	> 100 µM (inactive)	> 100 µM (inactive)	85.9 µM (inactive)	> 100 µM (inactive)	5.27 µM (inactive)	> 100 µM (inactive)	46.2 µM (inactive)	> 100 µM (inactive)	49.4 µM (inactive)	> 100 µM (inactive)	> 100 µM (inactive)	> 100 µM (inactive)	> 100 µM (inactive)	> 100 µM (inactive)	> 100 µM (inactive)	32.7 µM (inactive)	> 100 µM (inactive)	> 100 µM (inactive)	> 100 µM (inactive)
Cc1cc(O)c2c(c1)C(=O)C(c1c(C)cc3c(c1O)C(=O)C1OC1C3=O)=CC2=O (stereo not given)	4.16 µM (inactive)	13.1 µM (inactive)	17.7 µM (inactive)	9.1 µM (inactive)	0.839 µM (active)	0.0667 µM (active)	16.5 µM (inactive)	1.1 µM (active)	2.77 µM (inactive)	1.42 µM (inactive)	2.96 µM (inactive)	6.7 µM (inactive)	16.1 µM (inactive)	6.9 µM (inactive)	7.24 µM (inactive)	1.8 µM (inactive)	2.03 µM (inactive)	1.27 µM (inactive)	10.7 µM (inactive)
